Test results published in ChEMBL document CHEMBL2396549, “The discovery of BMS-457, a potent and selective CCR1 antagonist” (Bioorg Med Chem Lett, 2013).
Activity calls are given as the source filed them. The rule behind the calls is not given here.

How the values were obtained:
[1] = Metabolic stability in monkey liver microsomes assessed as compound remaining; format: ADME, Macaca mulatta, Microsome; conditions: rhesus monkey
Liver microsomes [2] = test: Metabolic stability in rat liver microsomes assessed as compound remaining; format: ADME, Microsome
Liver = test: Metabolic stability in mouse liver microsomes assessed as compound remaining; format: ADME, Microsome
Liver microsomes [3] = test: Metabolic stability in human liver microsomes assessed as compound remaining; format: ADME, Microsome
[4] = molecular target: T1, Nuclear receptor subfamily 1 group I member 2 (Homo sapiens, UniProt O75469); test: Induction of PXR (unknown origin); conditions: for EC20 / EC60: human
T1 sequence (O75469 whole entry): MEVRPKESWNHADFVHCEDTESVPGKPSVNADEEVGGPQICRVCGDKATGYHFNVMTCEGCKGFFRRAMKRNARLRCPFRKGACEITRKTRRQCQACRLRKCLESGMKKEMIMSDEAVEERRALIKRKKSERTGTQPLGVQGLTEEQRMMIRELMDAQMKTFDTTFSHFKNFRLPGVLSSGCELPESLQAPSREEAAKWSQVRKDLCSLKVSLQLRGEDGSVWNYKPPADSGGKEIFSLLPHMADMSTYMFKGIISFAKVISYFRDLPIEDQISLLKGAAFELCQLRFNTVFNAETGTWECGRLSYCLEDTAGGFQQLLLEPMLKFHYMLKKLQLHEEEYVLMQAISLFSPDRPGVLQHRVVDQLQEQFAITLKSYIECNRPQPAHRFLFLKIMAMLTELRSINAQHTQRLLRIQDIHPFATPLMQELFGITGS

[5] = (§1) Inhibition of calcium channel (unknown origin); set-up: species or system Homo sapiens
[6] = (§2) Inhibition of sodium channel (unknown origin); set-up: species or system Homo sapiens
[7] = molecular target: T2, C-C chemokine receptor type 1 (Homo sapiens, UniProt P32246); test: Binding affinity to human CCR1
T2 sequence (P32246 whole entry): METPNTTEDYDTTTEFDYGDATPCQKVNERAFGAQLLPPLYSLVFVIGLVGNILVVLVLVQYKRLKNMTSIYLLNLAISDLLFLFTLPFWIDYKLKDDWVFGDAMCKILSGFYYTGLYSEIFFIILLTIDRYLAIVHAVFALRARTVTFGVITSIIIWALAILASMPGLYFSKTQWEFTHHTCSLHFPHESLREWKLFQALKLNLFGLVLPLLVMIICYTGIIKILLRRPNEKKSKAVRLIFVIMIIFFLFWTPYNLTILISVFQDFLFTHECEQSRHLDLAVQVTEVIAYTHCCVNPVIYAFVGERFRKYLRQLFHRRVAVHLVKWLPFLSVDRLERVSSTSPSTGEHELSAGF

hERG (KCNH2) = hERG (KCNH2) (Homo sapiens, UniProt Q12809); test: Inhibition of human ERG at 10 uM by patch clamp assay
hERG (KCNH2), sequence (Q12809 whole entry): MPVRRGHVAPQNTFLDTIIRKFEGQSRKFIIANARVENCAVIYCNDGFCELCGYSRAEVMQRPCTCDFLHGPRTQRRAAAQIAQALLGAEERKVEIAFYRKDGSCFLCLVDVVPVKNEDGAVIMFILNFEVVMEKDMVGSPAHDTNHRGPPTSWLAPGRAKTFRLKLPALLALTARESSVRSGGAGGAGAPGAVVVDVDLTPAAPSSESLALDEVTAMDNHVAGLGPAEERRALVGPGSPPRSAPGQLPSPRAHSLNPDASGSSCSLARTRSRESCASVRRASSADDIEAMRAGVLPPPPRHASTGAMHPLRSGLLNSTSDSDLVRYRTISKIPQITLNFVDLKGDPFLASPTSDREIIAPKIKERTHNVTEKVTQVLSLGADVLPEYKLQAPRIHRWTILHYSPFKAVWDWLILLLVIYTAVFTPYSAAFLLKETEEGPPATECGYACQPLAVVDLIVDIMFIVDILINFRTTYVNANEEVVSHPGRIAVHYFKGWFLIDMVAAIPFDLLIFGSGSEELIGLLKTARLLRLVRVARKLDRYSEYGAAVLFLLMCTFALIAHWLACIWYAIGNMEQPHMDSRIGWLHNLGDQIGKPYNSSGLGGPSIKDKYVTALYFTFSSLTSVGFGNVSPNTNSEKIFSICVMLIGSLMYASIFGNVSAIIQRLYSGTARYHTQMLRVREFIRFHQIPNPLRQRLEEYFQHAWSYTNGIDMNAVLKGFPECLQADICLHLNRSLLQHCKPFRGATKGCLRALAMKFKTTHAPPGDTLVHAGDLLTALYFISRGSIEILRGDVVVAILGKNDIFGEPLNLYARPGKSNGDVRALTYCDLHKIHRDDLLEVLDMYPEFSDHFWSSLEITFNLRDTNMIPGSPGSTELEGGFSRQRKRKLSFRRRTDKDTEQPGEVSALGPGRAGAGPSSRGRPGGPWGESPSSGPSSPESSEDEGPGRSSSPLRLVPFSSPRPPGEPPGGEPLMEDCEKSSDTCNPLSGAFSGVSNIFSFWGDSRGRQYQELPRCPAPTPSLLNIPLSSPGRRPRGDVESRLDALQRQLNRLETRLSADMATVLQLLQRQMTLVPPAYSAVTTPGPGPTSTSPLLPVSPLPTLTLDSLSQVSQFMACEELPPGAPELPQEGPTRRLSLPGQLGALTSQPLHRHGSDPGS

Homo sapiens [8] = species: Homo sapiens; test: Inhibition of calcium channel (unknown origin) at 10 uM
Homo sapiens [9] = species: Homo sapiens; test: Inhibition of sodium channel (unknown origin) at 10 uM
[10] = Oral bioavailability in cynomolgus monkey at 2 mg/kg; format: ADME, organism-based, Macaca fascicularis; conditions: in vivo
Homo sapiens [11] = species: Homo sapiens; test: as §1
[12] = Oral bioavailability in mouse at 9 mg/kg; format: ADME, organism-based; conditions: in vivo
Homo sapiens [13] = species: Homo sapiens; test: as §2
[14] = molecular target: Voltage-gated inwardly rectifying potassium channel KCNH2 (Homo sapiens, UniProt Q12809); test: Inhibition of human ERG by patch clamp assay
Voltage-gated inwardly rectifying potassium channel KCNH2, sequence (Q12809 whole entry): as above

Cytochrome P450 3A4 = Cytochrome P450 3A4 (Homo sapiens, UniProt P08684); test: Inhibition of CYP3A4 (unknown origin); format: ADME
Cytochrome P450 3A4, sequence (P08684 whole entry): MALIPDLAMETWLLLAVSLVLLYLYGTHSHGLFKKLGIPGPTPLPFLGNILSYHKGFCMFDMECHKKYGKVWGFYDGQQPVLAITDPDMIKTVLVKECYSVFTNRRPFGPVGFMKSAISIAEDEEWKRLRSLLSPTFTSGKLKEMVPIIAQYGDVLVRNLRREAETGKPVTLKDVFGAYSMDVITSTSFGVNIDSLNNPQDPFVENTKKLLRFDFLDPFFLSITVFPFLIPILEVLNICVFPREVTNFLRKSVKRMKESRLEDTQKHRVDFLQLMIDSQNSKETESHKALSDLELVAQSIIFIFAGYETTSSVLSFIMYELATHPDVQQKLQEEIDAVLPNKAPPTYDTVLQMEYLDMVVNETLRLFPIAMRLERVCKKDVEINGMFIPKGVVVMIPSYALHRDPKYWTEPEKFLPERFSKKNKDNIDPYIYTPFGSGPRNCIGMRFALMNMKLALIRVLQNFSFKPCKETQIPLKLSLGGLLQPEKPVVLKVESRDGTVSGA

Cytochrome P450 2C9 = Cytochrome P450 2C9 (Homo sapiens, UniProt P11712); test: Inhibition of CYP2C9 (unknown origin); format: ADME
Cytochrome P450 2C9, sequence (P11712 whole entry): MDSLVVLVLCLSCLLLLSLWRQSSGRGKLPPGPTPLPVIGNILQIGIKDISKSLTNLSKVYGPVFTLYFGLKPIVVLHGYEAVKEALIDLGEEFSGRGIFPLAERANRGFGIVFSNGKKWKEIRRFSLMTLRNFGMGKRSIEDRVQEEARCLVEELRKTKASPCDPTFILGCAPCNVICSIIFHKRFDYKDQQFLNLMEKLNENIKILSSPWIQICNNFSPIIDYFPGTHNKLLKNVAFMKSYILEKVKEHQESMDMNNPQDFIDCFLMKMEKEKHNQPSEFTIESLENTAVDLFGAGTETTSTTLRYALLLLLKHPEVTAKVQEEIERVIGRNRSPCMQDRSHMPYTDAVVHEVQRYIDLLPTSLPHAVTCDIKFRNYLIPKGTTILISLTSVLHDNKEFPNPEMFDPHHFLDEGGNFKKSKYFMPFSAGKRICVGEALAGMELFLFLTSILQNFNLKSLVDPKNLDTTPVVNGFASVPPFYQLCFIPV

Cytochrome P450 2D6 = Cytochrome P450 2D6 (Homo sapiens, UniProt P10635); test: Inhibition of CYP2D6 (unknown origin); format: ADME
Cytochrome P450 2D6, sequence (P10635 whole entry): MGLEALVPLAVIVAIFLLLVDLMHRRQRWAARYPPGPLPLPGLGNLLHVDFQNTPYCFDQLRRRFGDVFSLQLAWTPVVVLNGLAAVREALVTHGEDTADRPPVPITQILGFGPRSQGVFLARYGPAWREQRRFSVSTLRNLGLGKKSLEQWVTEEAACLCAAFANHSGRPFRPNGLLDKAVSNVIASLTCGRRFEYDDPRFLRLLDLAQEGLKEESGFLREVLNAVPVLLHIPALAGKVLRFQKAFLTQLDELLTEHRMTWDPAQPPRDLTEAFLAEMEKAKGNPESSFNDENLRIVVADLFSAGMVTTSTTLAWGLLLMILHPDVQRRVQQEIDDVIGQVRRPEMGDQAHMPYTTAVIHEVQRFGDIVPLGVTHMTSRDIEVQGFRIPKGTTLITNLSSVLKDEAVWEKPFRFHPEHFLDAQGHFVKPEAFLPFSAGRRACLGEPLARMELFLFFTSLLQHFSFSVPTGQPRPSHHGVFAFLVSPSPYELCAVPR

Cytochrome P450 2C19 = Cytochrome P450 2C19 (Homo sapiens, UniProt P33261); test: Inhibition of CYP2C19 (unknown origin); format: ADME
Cytochrome P450 2C19, sequence (P33261 whole entry): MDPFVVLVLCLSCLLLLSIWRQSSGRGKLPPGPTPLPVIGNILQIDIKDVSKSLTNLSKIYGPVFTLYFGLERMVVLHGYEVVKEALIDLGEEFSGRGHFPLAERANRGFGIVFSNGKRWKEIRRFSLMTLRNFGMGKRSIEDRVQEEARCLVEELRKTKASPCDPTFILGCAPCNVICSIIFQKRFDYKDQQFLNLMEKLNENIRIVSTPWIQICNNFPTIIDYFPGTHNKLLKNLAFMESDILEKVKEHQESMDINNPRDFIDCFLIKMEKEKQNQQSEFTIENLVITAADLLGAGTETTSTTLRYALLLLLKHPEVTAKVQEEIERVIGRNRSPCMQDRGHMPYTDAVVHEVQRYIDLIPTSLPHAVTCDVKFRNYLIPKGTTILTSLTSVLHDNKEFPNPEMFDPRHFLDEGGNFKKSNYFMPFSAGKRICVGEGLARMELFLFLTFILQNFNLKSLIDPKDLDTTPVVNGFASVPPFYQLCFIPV

Cytochrome P450 1A2 = molecular target: T3, Cytochrome P450 1A2 (Homo sapiens, UniProt P05177); test: Inhibition of CYP1A2 (unknown origin); format: ADME
T3 sequence (P05177 whole entry): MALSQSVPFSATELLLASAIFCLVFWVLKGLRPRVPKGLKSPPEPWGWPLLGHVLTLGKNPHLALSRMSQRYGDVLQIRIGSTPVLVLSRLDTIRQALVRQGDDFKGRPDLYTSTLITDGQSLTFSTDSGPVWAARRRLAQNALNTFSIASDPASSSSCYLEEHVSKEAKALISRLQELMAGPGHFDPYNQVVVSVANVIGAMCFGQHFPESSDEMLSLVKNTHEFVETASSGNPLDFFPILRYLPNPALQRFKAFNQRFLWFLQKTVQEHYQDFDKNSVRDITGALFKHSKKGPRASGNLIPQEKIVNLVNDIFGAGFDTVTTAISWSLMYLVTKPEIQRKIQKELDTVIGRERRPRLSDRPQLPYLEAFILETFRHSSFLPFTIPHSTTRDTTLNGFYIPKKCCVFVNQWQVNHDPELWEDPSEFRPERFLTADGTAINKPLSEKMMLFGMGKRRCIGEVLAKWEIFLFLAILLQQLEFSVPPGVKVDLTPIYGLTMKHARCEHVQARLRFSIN

[15] = molecular target: T2, C-C chemokine receptor type 1; test: Antagonist activity at CCR1 in whole blood (unknown origin) assessed as inhibition of LKN1-induced upregulation of beta2-integrin CD11b
[16] = molecular target: T2, C-C chemokine receptor type 1; test: Antagonist activity at CCR1 in whole blood (unknown origin) assessed as inhibition of MIP1alpha-induced upregulation of beta2-integrin CD11b
[17] = Fraction unbound in human serum; format: ADME, cell-free
[18] = Antagonist activity at human CCR1 assessed as inhibition of MIP1alpha-induced chemotaxis
[19] = molecular target: T2, C-C chemokine receptor type 1; test: Antagonist activity at human CCR1 assessed as inhibition of MIP1alpha-induced chemotaxis

Row | Compound | Stability [1] | Stability (Liver microsomes [2]) | Stability (Liver) | Stability (Liver microsomes [3]) | IC50 [7] | inhibition (Homo sapiens [8]) | inhibition (Homo sapiens [9]) | EC20 [4] | EC60 [4] | other results
1 | CC(C)[C@@H](NC(=O)[C@@H]1CCC[C@@H]1N)C(=O)N1CC[C@](O)(c2ccc(Cl)cc2)C(C)(C)C1 | 93% | 93% | 92% | 94% | 2.2 nM |  |  |  |  | EC50 [4]: 8500 nM; IC50 [5]: 21000 nM; IC50 [6]: 39000 nM
2 | CC(C)[C@@H](NC(=O)[C@@H]1CC[C@@H](O)C1)C(=O)N1CC[C@](O)(c2ccc(Cl)cc2)C(C)(C)C1 (mixture of isomers) | 66% | 87% | 88% | 98% | 0.8 nM | 11% | 14% | 41000 nM | > 50000 nM | inhibition at 10 µM (hERG (KCNH2)): 3%; bioavailability [10]: 54%; inhibition (Homo sapiens [11]): inactive; bioavailability [12]: 100%; inhibition (Homo sapiens [13]): inactive; INH [14]: > 80 µM; inhibition (INH) (Cytochrome P450 3A4): Not Active; inhibition (INH) (Cytochrome P450 2C9): Not Active; inhibition (INH) (Cytochrome P450 2D6): Not Active; inhibition (INH) (Cytochrome P450 2C19): Not Active; inhibition (INH) (Cytochrome P450 1A2): Not Active; IC50 [15]: 54 nM; IC50 [16]: 46 nM; fraction unbound [17]: 0.16
3 | CC(C)[C@@H](NC(=O)[C@H]1CC[C@@H](O)C1)C(=O)N1CC[C@](O)(c2ccc(Cl)cc2)C(C)(C)C1 (mixture of isomers) | 21% | 67% | 65% | 69% | 1.6 nM | 9% | 19% | 1800 nM | 7400 nM | 
4 | CC(C)[C@@H](NC(=O)C1CCCC1)C(=O)N1CC[C@](O)(c2ccc(Cl)cc2)C(C)(C)C1 | 4% | 50% | 26% | 47% | 1.4 nM | 50% | 52% | 400 nM | 1400 nM | 
5 | CC(C)[C@@H](NC(=O)[C@@H]1CC[C@H](O)C1)C(=O)N1CC[C@](O)(c2ccc(Cl)cc2)C(C)(C)C1 (mixture of isomers) | 22% | 75% | 60% | 43% | 0.8 nM | -4% | 5% | 5300 nM | > 50000 nM | 
6 | CC(C)[C@@H](NC(=O)[C@@H]1CCC[C@@H]1O)C(=O)N1CC[C@](O)(c2ccc(Cl)cc2)C(C)(C)C1 (relative stereo) | 1% | 20% | 49% | 33% | 2.3 nM |  |  |  |  | EC50 [4]: 1400 nM; IC50 [5]: 61000 nM; IC50 [6]: > 80000 nM
7 | CC(C)[C@@H](NC(=O)c1ccccc1)C(=O)N1CCC(c2ccc(Cl)cc2)CC1 |  |  |  |  | 30 nM |  |  |  |  | IC50 [18]: 78 nM
8 | CC(C)[C@H](CN1CC[C@](O)(c2ccc(Cl)cc2)C(C)(C)C1)NC(=O)c1ccccc1 |  |  |  |  | 2240 nM |  |  |  |  | IC50 [19]: Not Active
9 | CC(C)[C@@H](NC(=O)c1cccc(S(N)(=O)=O)c1)C(=O)N1CC[C@](O)(c2ccc(Cl)cc2)C(C)(C)C1 | 100% | 100% | 99% | 96% | 3 nM | 31% | 39% | > 50000 nM | > 50000 nM | 
